Data published in ChEMBL document CHEMBL4715814, “Design, synthesis and biological activity evaluation of novel 4-subtituted 2-naphthamide derivatives as AcrB inhibitors” (2018).
The source made the active and inactive calls. The calls are words filed in the database; no cut-off is given here.

Assays:
Escherichia coli [1] = test: (§1) Antibacterial activity against Wild type Escherichia coli BW25113 assessed as inhibition of AcrB efflux pump by mesuring the glucose-induced nile red efflux at 200 uM preincubated with CCCP for 15 mins followed by compound addition after 15 mins nile red added and incubated for 3 hrs in shaker by fluorimetric analysis; assay type: functional, organism-based; details: time 195.0 min
Cell membrane [2] = test: Induction of outer membrane permeabilization in wild type Escherichia coli BW25113 assessed as increase in nitrocefin hydrolysis at 512 ug/ml measured for 30 mins in presence of CCCP by spectrophotometry analysis; assay type: subcellular; details: dose 512.0 µg/ml
Escherichia coli [3] = test: Potentiation of chloramphenicol-induced antibacterial activity against AcrB deficient Escherichia coli BW25113 assessed as chloramphenicol MIC at 256 ug/ml incubated for 18 hrs under aerobic condition by checkerboard titration assay (reference value: 2 ug/ml); assay type: functional; details: dose 256 µg/ml
Escherichia coli [4] = test: Potentiation of erythromycin-induced antibacterial activity against AcrB deficient Escherichia coli BW25113 assessed as erythromycin MIC at 256 ug/ml incubated for 18 hrs under aerobic condition by checkerboard titration assay (reference value: 32 ug/ml); assay type: functional; details: dose 256 µg/ml
Escherichia coli [5] = test: Potentiation of TPP-induced antibacterial activity against wild type Escherichia coli BW25113 assessed as TPP MIC at 256 ug/ml incubated for 18 hrs under aerobic condition by checkerboard titration assay (reference value: 1024 ug/ml); assay type: functional; details: dose 256 µg/ml
Escherichia coli [6] = test: Potentiation of TPP-induced antibacterial activity against wild type Escherichia coli BW25113 assessed as TPP MIC at 128 ug/ml incubated for 18 hrs under aerobic condition by checkerboard titration assay (reference value: 1024 ug/ml); assay type: functional; details: dose 128 µg/ml
Escherichia coli [7] = test: Potentiation of chloramphenicol-induced antibacterial activity against wild type Escherichia coli BW25113 assessed as chloramphenicol MIC at 256 ug/ml incubated for 18 hrs under aerobic condition by checkerboard titration assay (reference value: 16 ug/ml); assay type: functional; details: dose 256 µg/ml
Escherichia coli [8] = test: Potentiation of chloramphenicol-induced antibacterial activity against wild type Escherichia coli BW25113 assessed as chloramphenicol MIC at 128 ug/ml incubated for 18 hrs under aerobic condition by checkerboard titration assay (reference value: 16 ug/ml); assay type: functional; details: dose 128 µg/ml
Escherichia coli [9] = test: Potentiation of rifampicin-induced antibacterial activity against wild type Escherichia coli BW25113 assessed as rifampicin MIC at 128 ug/ml incubated for 18 hrs under aerobic condition by checkerboard titration assay (reference value: 16 ug/ml); assay type: functional; details: dose 128 µg/ml
Escherichia coli [10] = test: Potentiation of rifampicin-induced antibacterial activity against wild type Escherichia coli BW25113 assessed as rifampicin MIC at 256 ug/ml incubated for 18 hrs under aerobic condition by checkerboard titration assay (reference value: 16 ug/ml); assay type: functional; details: dose 256 µg/ml
Escherichia coli [11] = test: Potentiation of erythromycin-induced antibacterial activity against wild type Escherichia coli BW25113 assessed as erythromycin MIC at 256 ug/ml incubated for 18 hrs under aerobic condition by checkerboard titration assay (reference value: 128 ug/ml); assay type: functional; details: dose 256 µg/ml
Escherichia coli [12] = test: Potentiation of erythromycin-induced antibacterial activity against wild type Escherichia coli BW25113 assessed as erythromycin MIC at 128 ug/ml incubated for 18 hrs under aerobic condition by checkerboard titration assay (reference value: 128 ug/ml); assay type: functional; details: dose 128 µg/ml
Escherichia coli [13] = test: Potentiation of chloramphenicol-induced antibacterial activity against wild type Escherichia coli BW25113 assessed as fold reduction in chloramphenicol MIC at 256 ug/ml incubated for 18 hrs under aerobic condition by checkerboard titration assay relative to chloramphenicol MIC alone; assay type: functional; details: dose 256 µg/ml
Escherichia coli [14] = test: as §1, with “500” for “200”; assay type: functional, organism-based; details: time 195.0 min
Escherichia coli [15] = test: Potentiation of TPP-induced antibacterial activity against AcrB deficient Escherichia coli BW25113 assessed as TPP MIC at 128 ug/ml incubated for 18 hrs under aerobic condition by checkerboard titration assay (reference value: 256 ug/ml); assay type: functional; details: dose 128 µg/ml
Escherichia coli [16] = test: Potentiation of chloramphenicol-induced antibacterial activity against AcrB deficient Escherichia coli BW25113 assessed as chloramphenicol MIC at 128 ug/ml incubated for 18 hrs under aerobic condition by checkerboard titration assay (reference value: 2 ug/ml); assay type: functional; details: dose 128 µg/ml
Escherichia coli [17] = test: Potentiation of TPP-induced antibacterial activity against AcrB deficient Escherichia coli BW25113 assessed as TPP MIC at 256 ug/ml incubated for 18 hrs under aerobic condition by checkerboard titration assay (reference value: 256 ug/ml); assay type: functional; details: dose 256 µg/ml
Escherichia coli [18] = test: Potentiation of erythromycin-induced antibacterial activity against AcrB deficient Escherichia coli BW25113 assessed as erythromycin MIC at 128 ug/ml incubated for 18 hrs under aerobic condition by checkerboard titration assay (reference value: 32 ug/ml); assay type: functional; details: dose 128 µg/ml
Cell membrane [19] = test: Disruption of inner membrane potential in wild type Escherichia coli BW25113 at 512 ug/ml preincubated for 10 mins followed by glucose stimulation and CCCP addition by DiOC2 probe based fluorimetric analysis; assay type: subcellular; details: dose 512.0 µg/ml

SMILES | Activity (Cell membrane [2]) | MIC (Escherichia coli [3]) | MIC (Escherichia coli [4]) | MIC (Escherichia coli [5]) | MIC (Escherichia coli [6]) | MIC (Escherichia coli [7]) | MIC (Escherichia coli [8]) | MIC (Escherichia coli [9]) | MIC (Escherichia coli [10]) | MIC (Escherichia coli [11]) | MIC (Escherichia coli [12]) | MIC (Escherichia coli [15]) | MIC (Escherichia coli [16]) | MIC (Escherichia coli [17]) | MIC (Escherichia coli [18]) | Activity (Cell membrane [19]) | Activity (Escherichia coli [1]) | fold change (FC) (Escherichia coli [13]) | Activity (Escherichia coli [14])
COc1ccc(CNC(=O)c2cc(OCc3ccccc3)c3ccccc3c2)cc1 | Active | 2 µg/mL | 32 µg/mL | 1020 µg/mL | 1020 µg/mL | 4 µg/mL | 8 µg/mL | 16 µg/mL | 4 µg/mL | 128 µg/mL | 128 µg/mL |  |  |  |  |  | Active |  | 
CCCNC(=O)c1cc(OCc2ccccc2)c2ccccc2c1 | inactive | 2 µg/mL |  | 1020 µg/mL | 1020 µg/mL | 4 µg/mL | 16 µg/mL | 16 µg/mL | 8 µg/mL | 128 µg/mL | 128 µg/mL |  |  |  |  | Active |  |  | 
NC(=O)c1cc(OCCOc2ccccc2N)c2ccccc2c1 | Active | 2 µg/mL | 32 µg/mL | 1020 µg/mL | 1020 µg/mL | 4 µg/mL | 8 µg/mL | 16 µg/mL | 16 µg/mL | 128 µg/mL | 128 µg/mL |  |  | 256 µg/mL |  | Active |  |  | Active
NC(=O)c1cc(OCCN2CCN(c3ccccc3)CC2)c2ccccc2c1 | inactive | 2 µg/mL | 32 µg/mL | 512 µg/mL | 1020 µg/mL | 2 µg/mL | 8 µg/mL | 16 µg/mL | 16 µg/mL | 128 µg/mL | 128 µg/mL |  |  | 256 µg/mL |  | inactive | Active | 8 | 
CC(C)CCOc1cc(C(=O)Nc2ccccc2C(F)(F)F)cc2ccccc12 | inactive | 2 µg/mL | 32 µg/mL | 1020 µg/mL | 1020 µg/mL | 4 µg/mL | 8 µg/mL | 16 µg/mL | 16 µg/mL | 32 µg/mL | 64 µg/mL |  |  | 256 µg/mL |  | inactive |  |  | Active
NC(=O)c1cc(OCCSc2nc3ccccc3[nH]2)c2ccccc2c1 | inactive | 2 µg/mL | 32 µg/mL | 256 µg/mL | 1020 µg/mL | 16 µg/mL | 16 µg/mL | 16 µg/mL | 16 µg/mL | 128 µg/mL | 128 µg/mL |  |  | 256 µg/mL |  | inactive |  |  | Active

The next lines start with results.

Activity (Cell membrane [2]) | MIC (Escherichia coli [3]) | MIC (Escherichia coli [4]) | MIC (Escherichia coli [5]) | MIC (Escherichia coli [6]) | MIC (Escherichia coli [7]) | MIC (Escherichia coli [8]) | MIC (Escherichia coli [9]) | MIC (Escherichia coli [10]) | MIC (Escherichia coli [11]) | MIC (Escherichia coli [12]) | MIC (Escherichia coli [15]) | MIC (Escherichia coli [16]) | MIC (Escherichia coli [17]) | MIC (Escherichia coli [18]) | Activity (Cell membrane [19]) | SMILES | Activity (Escherichia coli [1]) | fold change (FC) (Escherichia coli [13]) | Activity (Escherichia coli [14])
 | 2 µg/mL | 32 µg/mL | 256 µg/mL | 1020 µg/mL | 2 µg/mL | 8 µg/mL | 16 µg/mL | 16 µg/mL | 128 µg/mL | 128 µg/mL | 256 µg/mL | 2 µg/mL | 256 µg/mL | 32 µg/mL | Active | C#CCNC(=O)c1cc(OCCC(C)C)c2ccccc2c1 |  | 8 | inactive
 | 2 µg/mL | 32 µg/mL | 1020 µg/mL | 1020 µg/mL | 16 µg/mL | 16 µg/mL | 16 µg/mL | 16 µg/mL | 32 µg/mL | 64 µg/mL |  |  | 256 µg/mL |  |  | COc1ccc(CNC(=O)c2cc(OCCC(C)C)c3ccccc3c2)cc1 |  |  | inactive
inactive | 2 µg/mL | 32 µg/mL | 1020 µg/mL | 1020 µg/mL | 4 µg/mL | 8 µg/mL | 16 µg/mL | 16 µg/mL | 32 µg/mL | 64 µg/mL |  |  | 256 µg/mL |  | Active | CC(C)CCOc1cc(C(=O)NCc2ccco2)cc2ccccc12 |  |  | Active
inactive | 1 µg/mL | 32 µg/mL | 1020 µg/mL | 1020 µg/mL | 4 µg/mL | 8 µg/mL | 16 µg/mL | 8 µg/mL | 32 µg/mL | 64 µg/mL |  |  | 256 µg/mL |  |  | CC(C)CCOc1cc(C(=O)NCc2ccccc2)cc2ccccc12 |  |  | 
